In patent US7576082B2, “Oxindole derivatives” (Hoffman-La Roche Inc., priority 2005, dated 2009) one finds IC50 data, which are given here for four molecules.

Sequence of interaction between p53 and MDM2 proteins (Q00987 whole entry): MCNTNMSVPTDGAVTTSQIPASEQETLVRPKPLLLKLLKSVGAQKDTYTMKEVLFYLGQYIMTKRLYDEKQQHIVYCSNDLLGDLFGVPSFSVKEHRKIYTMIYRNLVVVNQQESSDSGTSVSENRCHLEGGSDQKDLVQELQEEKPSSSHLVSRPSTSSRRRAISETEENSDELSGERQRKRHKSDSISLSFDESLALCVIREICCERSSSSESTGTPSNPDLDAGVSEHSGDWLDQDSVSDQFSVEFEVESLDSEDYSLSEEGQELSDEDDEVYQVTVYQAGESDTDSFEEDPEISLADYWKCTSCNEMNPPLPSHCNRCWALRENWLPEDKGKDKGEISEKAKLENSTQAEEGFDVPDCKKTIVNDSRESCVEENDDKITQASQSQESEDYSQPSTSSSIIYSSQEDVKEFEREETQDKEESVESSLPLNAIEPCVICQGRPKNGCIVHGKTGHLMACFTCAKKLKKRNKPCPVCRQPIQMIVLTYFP

In the assay the target is interaction between p53 and MDM2 proteins (Homo sapiens, UniProt Q00987). Briefly: HTRF assay of inhibition of the interaction between p53 and MDM2 proteins (GST-MDM2 / biotinylated p53 peptide). The following applies: recombinant GST-tagged MDM2, biotinylated p53 peptide, 37° C. for 1 h. It is filed as binding. On the procedure:
[…], the ability of the compounds to inhibit the interaction between p53 and MDM2 proteins was measured.
The ability of the compounds to inhibit the interaction between p53 and MDM2 proteins was measured by an HTRF (homogeneous time-resolved fluorescence) assay in which recombinant GST-tagged MDM2 binds to a peptide that resembles the MDM2-interacting region of p53 (Lane et al.). Binding of GST-MDM2 protein and p53-peptide (biotinylated on its N-terminal end) is registered by the FRET (fluorescence resonance energy transfer) between Europium (Eu)-labeled anti-GST antibody and streptavidin-conjugated Allophycocyanin (APC).
Test is performed in black flat-bottom 384-well plates (Costar) in a total volume of 40 uL containing: 90 nM biotinylate peptide, 160 ng/ml GST-MDM2, 20 nM streptavidin-APC (PerkinElmerWallac), 2 nM Eu-labeled anti-GST-antibody (PerkinElmerWallac), 0.2% bovine serum albumin (BSA), 1 mM dithiothreitol (DTT) and 20 mM Tris-borate saline (TBS) buffer as follows: Add 10 uL of GST-MDM2 (640 ng/ml working solution) in reaction buffer to each well. Add 10 uL diluted compounds (1:5 dilution in reaction buffer) to each well, mix by shaking. Add 20 uL biotinylated p53 peptide (180 nM working solution) in reaction buffer to each well and mix on shaker. Incubate at 37° C. for 1 h. Add 20 uL streptavidin-APC and Eu-anti-GST antibody mixture (6 nM Eu-anti-GST and 60 nM streptavidin-APC working solution) in TBS buffer with 0.2% BSA, shake at room temperature for 30 minutes and read using a TRF-capable plate reader at 665 and 615 nm (Victor 5, Perkin ElmerWallac). If not specified, the reagents were purchased from Sigma Chemical Co.
On the technique in general: TR-FRET usually uses a lanthanide donor and a delayed reading to cut background.
As to `O=C1Nc2cc(Cl)ccc2C1(Cc1ccccc1)C1CCCC1` (racemic) [Example 3C, rac-3-Benzyl-6-chloro-3-cyclopentyl-1,3-dihydro-indol-2-one], the IC50 worked out at 5380 nM. To `COc1cccc(C2(Cc3ccccc3)C(=O)Nc3cc(Cl)ccc32)c1` (racemic) [Example 6C, rac-3-Benzyl-6-chloro-3-(3-methoxy-phenyl)-1,3-dihydro-indol-2-one] belongs 9490 nM.

In the case of `COc1cccc(C2(Cc3cccc(Cl)c3)C(=O)Nc3cc(Cl)ccc32)c1` (racemic) [Example 9, rac-6-Chloro-3-(3-chloro-benzyl)-3-(3-methoxy-phenyl)-1,3-dihydro-indol-2-one], the IC50 is 460 nM. To `COc1cccc([C@]2(Cc3cccc(Cl)c3)C(=O)Nc3cc(Cl)ccc32)c1` (single isomer, unassigned) [Example 13] belongs 280 nM.

Usually IC50 stands for the midpoint of a concentration-inhibition curve.
